These results are taken from patent publication US20240082223A1, “DIHYDROFUROPYRIDINE DERIVATIVES AS RHO- KINASE INHIBITORS” (CHIESI FARMACEUTICI S.P.A., priority 2020, published 2024).

Holding throughout (format): biochemical
Experiment [1] addresses T1, ROCK1 (Homo sapiens, UniProt Q13464). Put plainly: In vitro inhibitory activity assay ROCK1 (Method A, ADP-Glo, 10 μM ATP). The conditions noted are these: ATP 10 μM, read-out: Method A ROCK 1 (Ki). An outline of the steps: (§1)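 Kinase reaction at 25 °C with 2.5 μM myelin basic protein, 10 μM ATP, 40 mM Tris pH 7.5, 20 mM MgCl2, 1% DMSO; enzyme and compound preincubated 30 min, reaction run 1 h, ADP measured by ADP-Glo luminescence. IC50 from variable-slope sigmoidal fit (0–100% fixed); Ki via Cheng-Prusoff.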

Experiment [2] has as its target T2, ROCK2 (Homo sapiens, UniProt O75116). The experiment is described as follows: In vitro inhibitory activity assay ROCK2 (Method A, ADP-Glo, 10 μM ATP). The conditions noted are these: ATP 10 μM, read-out: Method A ROCK 2 (Ki). An outline of the steps:
as §1
Background: In ADP-Glo the light output rises with the ADP produced.

For experiment [3], the target named is T1, ROCK1. Put plainly: In vitro inhibitory activity assay ROCK1 (Method B, ADP-Glo, 200 μM ATP). The conditions noted are these: ATP 200 μM, read-out: Method B ROCK 1 (Ki). Here is the method: (§2) In Vitro Inhibitory Activity Assay Description ROCK1 and ROCK2
(§3) The effectiveness of compounds of the present invention to inhibit Rho kinase activity can be determined in a 10 μl assay containing 40 mM Tris pH7.5, 20 mM MgCl2 0.1 mg/mL BSA, 50 μM DTT and 2.5 μM peptide substrate (Myelin Basic Protein) using an ADP-Glo kit (Promega). Compounds were dissolved in DMSO such that the final concentration of DMSO was 1% in the assay. All reactions/incubations are performed at 25° C. Compound (2 μL) and either Rho kinase 1 or 2 (4 μl) were mixed and incubated for 30 min. Reactions were initiated by addition of ATP (4 μL) such that the final concentration of ATP in the assay was 200 μM. After a 1 hour incubation […] of ADP-Glo Reagent was added and after a further 45 minute incubation 20 μL of Kinase Detection Buffer was added and the mixture incubated for a further 30 minutes. The luminescent signal was measured on a luminometer. […] Compounds were tested in dose-response format and the inhibition of kinase activity was calculated at each concentration of compound. To determine the IC50 (concentration of compound required to inhibit 50% of the enzyme activity) data were fit to a plot of % inhibition vs Log10 compound concentration using a sigmoidal fit with a variable slope and fixing the maximum to 100% and the minimum to 0%. To determine the Ki values the Cheng-Prusoff equation was utilized ([…].

The target in experiment [4] is T2, ROCK2. Put plainly: In vitro inhibitory activity assay ROCK2 (Method B, ADP-Glo, 200 μM ATP). The conditions noted are these: ATP 200 μM, read-out: Method B ROCK 2 (Ki). As for the experimental part:
as §2, §3

Another experiment has as its target PKA (Homo sapiens, UniProt P17612). Put plainly: In vitro inhibitory activity assay for PKA (ADP-Glo), reported as selectivity ratio vs ROCK2. The conditions noted are these: Ki PKA divided by Ki ROCK2 (method B). Here is the method:
In vitro inhibitory activity assay description for PKA
The effectiveness of compounds of the present invention to inhibit PKA activity can be determined in a […], assay containing 40 mM Tris pH7.5, 20 mM MgCl2 0.1 mg/mL BSA, 50 μM DTT and 260 μM peptide substrate (kemptide) using an ADP-Glo kit (Promega). Compounds were dissolved in DMSO such that the final concentration of DMSO was 1% in the assay. All reactions/incubations are performed at 25° C. Compound and PKA enzyme (6 μl) were mixed and incubated for 30 min. Reactions were initiated by addition of ATP (4 μL) such that the final concentration of ATP in the assay was 10 μM. After a 30 minute incubation 10 μL of ADP-Glo Reagent was added and after a further 1 hour incubation 20 μL of Kinase Detection Buffer was added and the mixture incubated for a further 45 minutes. The luminescent signal was measured on a luminometer. […] Compounds were tested in dose-response format and the inhibition of kinase activity was calculated at each concentration of compound. To determine the IC50 (concentration of compound required to inhibit 50% of the enzyme activity) data were fit to a plot of % inhibition vs Log10 compound concentration using a sigmoidal fit with a variable slope and fixing the maximum to 100% and the minimum to 0%. To determine the Ki values the Cheng-Prusoff equation was utilized (Ki=IC50/(1+[S]/Km).
In vitro inhibitory activities for PKA were reported as selectivity ratio vs. ROCK2. Selectivity ratio PKA/ROCK2 was calculated by dividing the Ki value for PKA by Ki value of ROCK2 (method B) and reported into table 1.

T1 sequence (Q13464 whole entry): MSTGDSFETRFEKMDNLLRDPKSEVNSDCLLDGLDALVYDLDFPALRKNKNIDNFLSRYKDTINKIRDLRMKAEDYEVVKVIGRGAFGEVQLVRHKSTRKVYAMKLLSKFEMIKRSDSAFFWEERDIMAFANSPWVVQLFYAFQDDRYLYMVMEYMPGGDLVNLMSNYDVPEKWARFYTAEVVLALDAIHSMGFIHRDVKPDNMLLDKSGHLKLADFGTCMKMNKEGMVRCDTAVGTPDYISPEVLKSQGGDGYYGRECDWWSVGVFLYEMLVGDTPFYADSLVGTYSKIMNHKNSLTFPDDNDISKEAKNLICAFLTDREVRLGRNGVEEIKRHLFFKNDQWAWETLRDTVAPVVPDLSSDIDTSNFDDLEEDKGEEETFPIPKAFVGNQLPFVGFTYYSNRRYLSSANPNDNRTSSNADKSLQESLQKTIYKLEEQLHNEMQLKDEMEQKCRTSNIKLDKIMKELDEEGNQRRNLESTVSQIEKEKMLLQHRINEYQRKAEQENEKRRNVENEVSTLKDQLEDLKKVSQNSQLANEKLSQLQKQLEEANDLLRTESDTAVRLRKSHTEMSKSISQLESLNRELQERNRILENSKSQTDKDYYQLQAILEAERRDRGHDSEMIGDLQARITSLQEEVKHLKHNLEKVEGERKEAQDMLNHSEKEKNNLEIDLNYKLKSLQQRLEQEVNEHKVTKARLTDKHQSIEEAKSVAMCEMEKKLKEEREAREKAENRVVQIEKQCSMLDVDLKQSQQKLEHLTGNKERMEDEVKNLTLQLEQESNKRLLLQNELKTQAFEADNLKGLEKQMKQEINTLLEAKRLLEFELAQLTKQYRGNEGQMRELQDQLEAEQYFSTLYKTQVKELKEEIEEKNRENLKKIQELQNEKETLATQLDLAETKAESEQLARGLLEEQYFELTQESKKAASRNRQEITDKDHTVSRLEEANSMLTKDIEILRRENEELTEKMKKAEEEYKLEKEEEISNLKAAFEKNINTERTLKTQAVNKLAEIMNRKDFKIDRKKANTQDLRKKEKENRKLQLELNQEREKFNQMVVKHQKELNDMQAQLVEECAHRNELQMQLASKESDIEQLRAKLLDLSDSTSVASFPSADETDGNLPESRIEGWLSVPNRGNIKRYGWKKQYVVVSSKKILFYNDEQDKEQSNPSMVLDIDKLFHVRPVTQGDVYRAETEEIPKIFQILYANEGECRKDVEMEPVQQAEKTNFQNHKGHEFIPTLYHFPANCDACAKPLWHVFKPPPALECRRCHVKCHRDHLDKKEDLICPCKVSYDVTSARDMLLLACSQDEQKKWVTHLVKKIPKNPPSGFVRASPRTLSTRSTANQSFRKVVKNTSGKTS
T2 sequence (O75116 whole entry): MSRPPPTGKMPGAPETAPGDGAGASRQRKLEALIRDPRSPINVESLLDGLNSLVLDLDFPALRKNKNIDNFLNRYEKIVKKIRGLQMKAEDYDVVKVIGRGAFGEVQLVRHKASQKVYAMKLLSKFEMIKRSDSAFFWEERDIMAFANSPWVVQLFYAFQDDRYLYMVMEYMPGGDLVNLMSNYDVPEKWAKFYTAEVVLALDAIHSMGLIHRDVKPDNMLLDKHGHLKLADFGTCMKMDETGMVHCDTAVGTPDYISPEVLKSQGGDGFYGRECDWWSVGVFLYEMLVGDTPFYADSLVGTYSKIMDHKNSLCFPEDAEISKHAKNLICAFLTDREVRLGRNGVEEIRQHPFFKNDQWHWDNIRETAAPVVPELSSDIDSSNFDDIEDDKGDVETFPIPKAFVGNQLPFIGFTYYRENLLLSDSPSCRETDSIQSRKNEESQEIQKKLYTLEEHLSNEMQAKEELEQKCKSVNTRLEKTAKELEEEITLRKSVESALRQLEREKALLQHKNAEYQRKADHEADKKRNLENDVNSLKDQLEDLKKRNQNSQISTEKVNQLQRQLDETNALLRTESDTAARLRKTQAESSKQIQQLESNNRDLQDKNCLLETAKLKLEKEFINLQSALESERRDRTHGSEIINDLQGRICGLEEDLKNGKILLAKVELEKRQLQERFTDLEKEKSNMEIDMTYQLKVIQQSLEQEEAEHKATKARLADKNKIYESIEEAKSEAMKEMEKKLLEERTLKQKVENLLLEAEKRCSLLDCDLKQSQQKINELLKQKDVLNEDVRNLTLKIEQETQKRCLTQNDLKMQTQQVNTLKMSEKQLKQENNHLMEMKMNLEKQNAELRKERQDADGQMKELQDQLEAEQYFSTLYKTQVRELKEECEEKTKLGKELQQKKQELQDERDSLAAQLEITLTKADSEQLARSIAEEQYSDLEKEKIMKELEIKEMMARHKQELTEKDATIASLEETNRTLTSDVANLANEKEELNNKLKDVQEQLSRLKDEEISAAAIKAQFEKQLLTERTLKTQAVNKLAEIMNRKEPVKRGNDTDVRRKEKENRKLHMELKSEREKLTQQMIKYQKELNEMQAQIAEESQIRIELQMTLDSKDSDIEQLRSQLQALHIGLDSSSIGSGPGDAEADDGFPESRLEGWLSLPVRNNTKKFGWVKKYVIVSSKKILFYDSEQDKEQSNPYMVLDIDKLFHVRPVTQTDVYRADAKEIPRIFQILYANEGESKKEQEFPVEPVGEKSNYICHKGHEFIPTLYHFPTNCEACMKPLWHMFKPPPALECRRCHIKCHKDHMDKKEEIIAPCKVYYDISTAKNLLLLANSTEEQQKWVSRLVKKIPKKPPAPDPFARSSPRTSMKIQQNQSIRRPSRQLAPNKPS

On to `CN1CCC(CCNC(=O)c2cccc(CNc3ncc(-c4cn[nH]c4)c4c3CCO4)c2)CC1` [Example 16, 3-(((7-(1H-pyrazol-4-yl)-2,3-dihydrofuro[3,2-c]pyridin-4-yl)amino)methyl)-N-(2-(1-methylpiperidin-4-yl)ethyl)benzamide], for which the Ki at ROCK1 [1], on ROCK2 [2], at ROCK1 [3] and on ROCK2 [4] was ≤ 3 nM each time. Besides, the “Ratio Ki PKA/ROCK2” value at PKA is reported as “*** (ratio≥10)”.
On to `CN(C)C1CCc2nc(NC(=O)c3cccc(CNc4ncc(-c5cn[nH]c5)c5c4CCO5)c3)sc2C1` (centres unmarked) [Example 33, 3-(((7-(1H-Pyrazol-4-yl)-2,3-dihydrofuro[3,2-c]pyridin-4-yl)amino)methyl)-N-(6-(dimethylamino)-4,5,6,7-tetrahydrobenzo[d]thiazol-2-yl)benzamide], for which the Ki at ROCK1 [1], at ROCK2 [2], at ROCK1 [3] and at ROCK2 [4] was ≤ 3 nM each time. The “Ratio Ki PKA/ROCK2” value at PKA is “*** (ratio≥10)”.
In the case of `O=C(Nc1nc2c(s1)CC(NC1COC1)CC2)c1cccc(CNc2ncc(-c3cn[nH]c3)c3c2CCO3)c1` (centres unmarked) [Example 34, 3-(((7-(1H-pyrazol-4-yl)-2,3-dihydrofuro[3,2-c]pyridin-4-yl)amino)methyl)-N-(6-(oxetan-3-ylamino)-4,5,6,7-tetrahydrobenzo[d]thiazol-2-yl)benzamide], the Ki on ROCK1 [1], on ROCK2 [2], at ROCK1 [3] and at ROCK2 [4] was ≤ 3 nM in each case. For the same compound, the “Ratio Ki PKA/ROCK2” value at PKA is given as “*** (ratio≥10)”.
`CN1CCn2nc(NC(=O)c3cccc(CNc4ncc(-c5cn[nH]c5)c5c4CCO5)c3)cc2C1` [Example 15, 3-(((7-(1H-pyrazol-4-yl)-2,3-dihydrofuro[3,2-c]pyridin-4-yl)amino)methyl)-N-(5-methyl-4,5,6,7-tetrahydropyrazolo[1,5-a]pyrazin-2-yl)benzamide]: the Ki at ROCK1 [1], on ROCK2 [2], on ROCK1 [3] and at ROCK2 [4] was ≤ 3 nM in each case. Moreover, at PKA, the “Ratio Ki PKA/ROCK2” value is on record as “*** (ratio≥10)”.

What is called Ki is a dissociation constant, usually derived from enzyme kinetics or from competition with a known ligand.
